Experimental data reported in patent US10550130B2, “Benzo-thiazolo-imidazole compounds and uses thereof” (KING SAUD UNIVERSITY, priority 2015, dated 2020).

Legend:
MCF-7 cells = test: Flow cytometric analysis of cellular DNA content (cell cycle distribution); type: cell-based; details: 20 μM, 8, 16, 12 and 48 h
Procedure: 2×10^6 cells were fixed in 1 ml ethanol (70%) for 60 min at room temperature. Harvested cells were resuspended in 1 ml Na citrate (50 mM) containing 250 μg RNase A and incubated at 50° C. for 60 min. Next, cells were resuspended in the same buffer containing 4 μg propidium iodide (PI) and incubated for 30 min before being analyzed by flow cytometry (Becton Dickinson, San. Jose, Calif., USA). The percentage of cells in various cell cycle phases was determined by using Cell Quest Pro software (Becton Dickinson).
To gain insight into the mechanism by which anti-proliferation was achieved, the effect on cell cycle distribution was investigated by fluorescence-activated cell sorting (FACS) analysis. […] This was also accompanied by a compensatory decrease in G1 phase cells. Based on histograms the compound blocks the cells on early stage of mitosis, thereby inhibiting the transition of the cells to complete mitosis.

[1] = tested on: ALDH+ CD24low/CD44High breast cancer stem cells (from MDA-MB-468 cells); test: Apoptosis in sorted breast cancer stem cells versus differentiated cells; type: cell-based; details: 10 μM, two days; ALDH+ CD24low/CD44High vs ALDH- CD24High/CD44low from MDA-MB-468
Procedure: MDA-MB-468 Cells harvested, washed and incubated in aldefluor assay buffer containing an ALDH substrate (BAAA (BODIPY®-aminoacetaldehyde). For negative control, half of the cells of each sample was removed to another FACS tube and incubated under identical condition with DEAB, a specific inhibitor of ALDH enzyme. Then the cells were stained with the following directly conjugated monoclonal antibodies anti-mouse CD44-APC-Cy7 (Biolegend), anti-mouse CD24-Pacific Blue (EXBIO Praha, a.s.). All analyses and cell sorting were performed on a FACSAria™ cell sorter (BD Biosciences). Debris and cell clusters were excluded during side-scatter and forward-scatter analyses.
ALDH^+ CD24^low/CD44^High breast cancer stem cells were sorted and cultured for 24 h. Cells were then treated with 10 μM of the compound KSA-101696 for two days. At the same time, ALDH^− CD24^High/CD44^low breast cancer differentiated cells were used as a negative control to evaluate the selective apoptotic activity of the compound against breast cancer stem cells compared with differentiated phenotype from the same bulk population of MDA-MB-468 cells.

[2] = Determination of LD50 value
Procedure: Swiss Webster Albino mice were housed in groups of 2 or 4 in elevated steel wire-mesh cages in a controlled room maintained at a temperature of 22±2° C., relative humidity of 50±10% and a 12 h light-dark cycle. Rodent diet chow (feed) provided by Grain Silos Flour Mills Organization, Riyadh, Saudi Arabia, and tap water for drinking were made available ad lib.
Male mice were divided into various groups (n=10 animals per group). Each group was administered a different dose of the respective compound via the intraperitoneal (i.p.) route. The dose range used was 100-5000 mg/kg.
During the observation periods there was a continuous record of any behavioral changes and clinical symptoms that caused by effects on the central and autonomic nervous systems, the respiratory and the cardiovascular systems or any other action on the gastrointestinal tract, the renal systems, eye, skin, skeletal muscles etc.
During the 72 hour observation period the number of animals that died in every group was recorded. The percentage of death calculated and converted to probits to calculate the LD50 value for each compound in mg/kg. The LD50 value reported in this study provided compounds in their liquid form in the provided concentrations.

T47D = test: Annexin V binding by flow cytometry (apoptosis); type: cell-based; details: high Numb expression, FIG. 9B
Procedure: It is known that loss of phospholipid asymmetry of the plasma membrane is an early event of apoptosis. The annexin V binds to negatively charged phospholipids, like phosphatidylserine. During apoptosis, the cells react to annexin V once chromatin condenses but before the plasma membrane loses its ability to exclude propidium iodide (PI).
Annexin-V staining was performed by using Vybrant Apoptosis Assay Kit #2 (Molecular Probes) following the manufacturer's recommendations. Annexin-V stained cells were analyzed by flow cytometry, measuring the fluorescence emission between 515 nm to 545 nm.
This experiment was carried out with three breast cancer cell lines: MDA-MB-468, SKBR-3 and T47D. The MDA-MB-468 cell line represents the basal like breast cancer (which is a breast cancer subtype with a more aggressive clinical behavior). The SKBR-3 cell line represents Her-2 overexpressing breast cancer. […] The T47D cell line represents ER/PR positive breast cancer. Unlike MDA-MB-468 cells or SKBR-3 cells, T47D cells are highly differentiated cells and respond very well to hormonal therapy and chemotherapy.
In a next step, it was investigated whether there was a correlation between Numb protein expression and sensitivity of a cell line to the apoptotic effects of KSA-101696. Apoptotic cells were determined by Annexin-V staining as described in Example 1.

COc1ccc(-c2csc3nc4ccccc4n23)cc1 [KSA-101696, 3-(4-methoxyphenyl)benzo[4,5]imidazo[2,1-b]thiazole]
cell cycle distribution (MCF-7 cells): accumulation of cells in G2/M phase in a time-dependent manner
induced apoptosis in cancer stem cells compared to differentiated breast cancer cells [1]: two-fold increase
Therapeutic ratio = LD50/ED50 ([2]; intraperitoneal): 40
LD50 at 72 h ([2]; male, Swiss Webster Albino, mouse, in vivo, ip): 2000 mg/kg
apoptosis (Annexin-V) in relation to Numb expression (T47D): did not have such effects
